Assay: refractive index (Na D-line) (dimensionless); xn = mol fraction of the nth substance listed
Conditions: 100 kPa, Liquid, Standard Abbe refractometry

CC12CC3CC(C)(C1)CC(C)(C3)C2 [1,3,5-trimethyladamantane] + CCCCCCCO
refractive index
Conditions | x2 = 0 | x2 = 0.1001 | x2 = 0.2001 | x2 = 0.3002 | x2 = 0.4004 | x2 = 0.5001 | x2 = 0.6002 | x2 = 0.7001 | x2 = 0.7999 | x2 = 0.9002
293.15 K | 1.4736 | 1.4695 | 1.4657 | 1.4617 | 1.4573 | 1.4524 | 1.4476 | 1.4424 | 1.4366 | 1.4303
298.15 K | 1.4715 | 1.4677 | 1.4637 | 1.4597 | 1.4552 | 1.4504 | 1.4458 | 1.4405 | 1.4348 | 1.4286
303.15 K | 1.4695 | 1.4652 | 1.4614 | 1.4574 | 1.453 | 1.4484 | 1.4434 | 1.4382 | 1.4325 | 1.4262
313.15 K | 1.4649 | 1.4612 | 1.4571 | 1.453 | 1.4487 | 1.4438 | 1.4389 | 1.4341 | 1.4283 | 1.4224
323.15 K | 1.4612 | 1.4569 | 1.453 | 1.4489 | 1.4445 | 1.4398 | 1.435 | 1.4299 | 1.4244 | 1.4182
333.15 K | 1.4568 | 1.4526 | 1.4485 | 1.4444 | 1.4401 | 1.4354 | 1.4303 | 1.4255 | 1.4195 | 1.4138

CC12CC3CC(C)(C1)CC(C)(C3)C2 [1,3,5-trimethyladamantane] + OCC1CCCCC1
refractive index
Conditions | x2 = 0 | x2 = 0.1 | x2 = 0.2001 | x2 = 0.2997 | x2 = 0.4 | x2 = 0.4994 | x2 = 0.5991 | x2 = 0.7 | x2 = 0.801 | x2 = 0.8927
293.15 K | 1.4736 | 1.4727 | 1.4718 | 1.4711 | 1.4703 | 1.4694 | 1.4684 | 1.4673 | 1.4661 | 1.465
298.15 K | 1.4715 | 1.4708 | 1.47 | 1.4691 | 1.4681 | 1.4672 | 1.4663 | 1.4655 | 1.4641 | 1.4631
303.15 K | 1.4695 | 1.4686 | 1.4676 | 1.4669 | 1.4659 | 1.465 | 1.4643 | 1.4632 | 1.4621 | 1.4609
313.15 K | 1.4649 | 1.4641 | 1.4633 | 1.4625 | 1.4618 | 1.4608 | 1.46 | 1.459 | 1.458 | 1.4568
323.15 K | 1.4612 | 1.46 | 1.4589 | 1.4582 | 1.4573 | 1.4565 | 1.4556 | 1.4549 | 1.4539 | 1.4528
333.15 K | 1.4568 | 1.4552 | 1.4545 | 1.4538 | 1.453 | 1.4522 | 1.4513 | 1.4504 | 1.4492 | 1.4486

CC12CC3CC(C1)CC(C)(C3)C2 [1,3-dimethyladamantane] + CCCCCCCO
refractive index
Conditions | x2 = 0 | x2 = 0.1001 | x2 = 0.1997 | x2 = 0.2998 | x2 = 0.3997 | x2 = 0.4997 | x2 = 0.6002 | x2 = 0.7 | x2 = 0.7996 | x2 = 0.8999
293.15 K | 1.4776 | 1.4735 | 1.4696 | 1.4642 | 1.4591 | 1.4541 | 1.4483 | 1.4427 | 1.4365 | 1.4299
298.15 K | 1.4757 | 1.4714 | 1.4678 | 1.4624 | 1.4572 | 1.4519 | 1.4468 | 1.4411 | 1.4351 | 1.4282
303.15 K | 1.4734 | 1.4695 | 1.4654 | 1.4603 | 1.4551 | 1.4495 | 1.4442 | 1.4389 | 1.4333 | 1.4265
313.15 K | 1.4691 | 1.4646 | 1.4608 | 1.4558 | 1.4508 | 1.4457 | 1.4402 | 1.4347 | 1.4288 | 1.4223
323.15 K | 1.4651 | 1.4606 | 1.4567 | 1.4514 | 1.4464 | 1.4411 | 1.4359 | 1.4301 | 1.4244 | 1.4178
333.15 K | 1.461 | 1.4564 | 1.4527 | 1.4473 | 1.4422 | 1.437 | 1.4316 | 1.4262 | 1.4206 | 1.4141

Source: the NIST ThermoML archive (doi:10.1021/je500381c)
